Converted amounts (≈) assume the structure as drawn. Where two headings read alike, the source gives them in different places.
How the values were obtained:
Gram positive bacteria = experiment: antibacterial activity of lanomycin; type: cell-based; details: in words, Table 4
Protocol: (§1) *Minimal inhibitory concentrations were determined by agar dilution assay

Gram negative bacteria = experiment: antibacterial activity of lanomycin; type: cell-based; details: in words, Table 4
Protocol: as §1

[1] = test system: cytochrome P450 enzymes, such as lanosterol demethylase; experiment: inhibition of cytochrome P450 enzymes (general statement); type: biochemical; details: in words
Aspergillus fumigatus = experiment: Activity of lanomycin against filamentous fungi, agar dilution (Table 6); type: cell-based
Protocol: (§2) MICs were determined by the agar dilution method using a medium composed of tryptone (5 g), malt extract (3 g), glucose (10 g) and yeast extract (3 g) in 1 L distiled water; 10^4 cfu of the test organism was applied to the agar.
(§3) MICs were determined as in Table 5 except that the inoculum was 10^3 cfu.

Trichophyton rubrum = experiment: as above; type: cell-based; details: SC9199; Trichophyton rubrum SC 9199; 10^3 cfu
Protocol: as §2, §3

[2] = test system: Trichophyton mentagrophytes; experiment: as above; type: cell-based; details: SC2637; Trichophyton mentagrophytes SC 2637; 10^3 cfu
Protocol: as §2, §3

Epidermophyton floccosum = experiment: as above; type: cell-based; details: SC9185; Epidermophyton floccosum SC 9185; 10^3 cfu
Protocol: as §2, §3

yeasts and fungi = experiment: activity against a variety of yeasts and fungi (general statement); type: cell-based; details: in words
Candida stellatoidea = experiment: Anticandidal activity of lanomycin, agar dilution method (Table 5); type: cell-based; details: Candida albicans, SC2211; Candida stellatoidea SC 2211; 10^4 cfu
Protocol: as §2

Candida guillermondii = experiment: as above; type: cell-based; details: for MIC: 10^4 cfu
Protocol: as §2

Candida albicans [3] = experiment: as above; type: cell-based; details: for MIC: 10^4 cfu
Protocol: as §2

Candida parakrusei [4] = experiment: as above; type: cell-based; details: for MIC: 10^4 cfu
Protocol: as §2

Candida tropicalis [5] = experiment: as above; type: cell-based; details: 10^4 cfu
Protocol: as §2

Candida krusei [6] = experiment: as above; type: cell-based; details: for MIC: Pichia kudriavzevii, 10^4 cfu
Protocol: as §2

Candida pseudotropicalis = experiment: as above; type: cell-based; details: Kluyveromyces marxianus, SC11241; Candida pseudotropicalis SC 11241; 10^4 cfu
Protocol: as §2

Candida glabrata [7] = experiment: as above; type: cell-based; details: for MIC: Nakaseomyces glabratus, 10^4 cfu
Protocol: as §2

Candida albicans [8] = experiment: agar diffusion assay with yeasts (zone of inhibition); type: cell-based
Protocol: (§4) In addition to M.I.C. determinations, the following methodology was used to determine the activity of the compounds of this invention against yeasts. Fresh F-4 broth cultures of the test organisms were made from frozen vials. The broth cultures were incubated at 30° C. for 18 to 24 hours at which time the average cell count was assumed to be 5×10^7 CFU per ml. They were then used to inoculate flasks containing 300 ml of F-4 agar that had been melted and cooled to 48° C. in a temperature-controlled water bath. The inoculum consisted of 1.7 ml to give an inoculum level of about 2.8×10^5 CFU per ml. 25 ml of the inoculated agar was then poured into 150×15mm sterile Petri dishes and allowed to harden.
(§5) The medium was sterilized at 121° C. for 15 minutes at 15 psi.
(§6) F-4 agar has the same composition as the broth but with the addition of 15 g agar per liter.
(§7) Cellulose discs, 6.35 mm diameter, from Schleicher & Schuell, Inc., Keene, N.H., were charged with 10 μl of a solution composed of 1 mg/ml of lanomycin or scopularin in methanol. The discs were then placed on the surface of the inoculated agar plates of the test yeast strains, and the plates incubated at 30° C. for 18 to 24 hours. At that time, the diameter of the zones of inhibition was measured.

Candida parakrusei [9] = experiment: as above; type: cell-based
Protocol: as §4, §5, §6, §7

Candida tropicalis [10] = experiment: as above; type: cell-based
Protocol: as §4, §5, §6, §7

Cryptococcus neoformis = experiment: as above; type: cell-based
Protocol: as §4, §5, §6, §7

Saccaromyces cerevisiae = experiment: as above; type: cell-based; details: read-out: Zone diameter
Protocol: as §4, §5, §6, §7

Candida quillermondi = experiment: as above; type: cell-based
Protocol: as §4, §5, §6, §7

Candida krusei [11] = experiment: as above; type: cell-based; details: Pichia kudriavzevii, SC2969; Candida krusei SC 2969; disc with 10 μl of 1 mg/ml; read-out: Zone diameter
Protocol: as §4, §5, §6, §7

Candida glabrata [12] = experiment: as above; type: cell-based; details: Nakaseomyces glabratus, SC9342; Candida glabrata SC 9342; disc with 10 μl of 1 mg/ml; read-out: Zone diameter
Protocol: as §4, §5, §6, §7

[13] = acute toxicity, intraperitoneal administration to mice; details: mouse, in vivo, ip, random bred Swiss Webster Female mice
[14] = Candida, SC2966, read-out: Zone diameter
[15] = Saccaromyces cerevisiae SGY 379, disc with 10 μl of 1 mg/ml
[16] = SC2210, Candida quillermondi SC 2210, disc with 10 μl of 1 mg/ml, read-out: Zone diameter

## C/C=C/C=C/C=C(\C)[C@H]1OC[C@@H](C)[C@@H](OC)[C@@H]1OC(=O)CN (relative stereo) [Lanomycin]
Gram positive bacteria
  activity against Gram positive bacteria: not active
Gram negative bacteria
  activity against Gram negative bacteria: not active
[1]
  inhibition of cytochrome P450 enzymes, such as lanosterol demethylase: inhibit
Aspergillus fumigatus; SC2100, Aspergillus fumigatus SC 2100, 10^3 cfu
  MIC: 100 µg/mL (≈ 323 µM)
Aspergillus fumigatus; in words, Table 6
  activity against Aspergillus fumigatus: inactive
Trichophyton rubrum
  MIC: 1.6 µg/mL (≈ 5.17 µM)
[2]
  MIC: 0.4 µg/mL (≈ 1.29 µM)
Epidermophyton floccosum
  MIC: 0.4 µg/mL (≈ 1.29 µM)
Yeasts and fungi
  activity against a variety of yeasts and fungi: has activity
Candida stellatoidea
  MIC: 50 µg/mL (≈ 162 µM)
Candida guillermondii; SC2210, Candida guillermondii SC 2210
  MIC: 50 µg/mL (≈ 162 µM)
Candida guillermondii; SC2996, Candida guillermondii SC 2996
  MIC: 1.6 µg/mL (≈ 5.17 µM)
Candida guillermondii; in words, Table 5
  activity against certain strains of C. guillermondii: good activity
Candida albicans [3]; SC5314, Candida albicans SC 5314
  MIC: > 100 µg/mL
Candida albicans [3]; SC9177, Candida albicans SC 9177
  MIC: 100 µg/mL (≈ 323 µM)
Candida albicans [3]; SC9721, Candida albicans SC 9721
  MIC: 100 µg/mL (≈ 323 µM)
Candida albicans [3]; SC10102, Candida albicans SC 10102
  MIC: > 100 µg/mL
Candida albicans [3]; SC10580, Candida albicans SC 10580
  MIC: > 100 µg/mL
Candida albicans [3]; SC10584, Candida albicans SC 10584
  MIC: 50 µg/mL (≈ 162 µM)
Candida albicans [3]; SC10585, Candida albicans SC 10585
  MIC: 100 µg/mL (≈ 323 µM)
Candida albicans [3]; SC11422, Candida albicans SC 11422
  MIC: 100 µg/mL (≈ 323 µM)
Candida albicans [3]; SC12734, Candida albicans SC 12734
  MIC: > 100 µg/mL
Candida albicans [3]; SC14021, Candida albicans SC 14021
  MIC: > 100 µg/mL
Candida albicans [3]; in words, Table 5
  activity against the C. albicans species tested: active
Candida parakrusei [4]; SC2621, Candida parakrusei SC 2621
  MIC: 12.5 µg/mL (≈ 40.4 µM)
Candida parakrusei [4]; SC2966, Candida parakrusei SC 2966
  MIC: 25 µg/mL (≈ 80.8 µM)
Candida parakrusei [4]; in words, Table 5
  activity against certain strains of C. parakrusei: good activity
Candida tropicalis [5]; SC2963, Candida tropicalis SC 2963
  MIC: 25 µg/mL (≈ 80.8 µM)
Candida tropicalis [5]; SC8159, Candida tropicalis SC 8159
  MIC: > 100 µg/mL
Candida tropicalis [5]; SC9861, Candida tropicalis SC 9861
  MIC: 100 µg/mL (≈ 323 µM)
Candida tropicalis [5]; SC10597, Candida tropicalis SC 10597
  MIC: 100 µg/mL (≈ 323 µM)
Candida krusei [6]; SC2967, Candida krusei SC 2967
  MIC: 6.3 µg/mL (≈ 20.4 µM)
Candida krusei [6]; SC2968, Candida krusei SC 2968
  MIC: 12.5 µg/mL (≈ 40.4 µM)
Candida krusei [6]; SC2969, Candida krusei SC 2969
  MIC: 25 µg/mL (≈ 80.8 µM)
Candida krusei [6]; in words, Table 5
  activity against certain strains of C. krusei: good activity
Candida pseudotropicalis
  MIC: 50 µg/mL (≈ 162 µM)
Candida glabrata [7]; SC9342, Candida glabrata SC 9342
  MIC: 0.8 µg/mL (≈ 2.59 µM)
Candida glabrata [7]; SC11267, Candida glabrata SC 11267
  MIC: 25 µg/mL (≈ 80.8 µM)
Candida glabrata [7]; in words, Table 5
  activity against certain strains of C. glabrata: good activity
Candida albicans [8]; SC4314, Candida albicans SC 4314, disc with 10 μl of 1 mg/ml, read-out: Zone diameter
  zone of inhibition at 1000 µg/mL: 32 mm
Candida parakrusei [9]; Candida, SC2621, read-out: Zone diameter
  zone of inhibition at 1000 µg/mL: 27 mm
Candida parakrusei [9]; [14]
  zone of inhibition at 1000 µg/mL: 12 mm
Candida tropicalis [10]; Candida tropicalis, SC2963, read-out: Zone diameter
  zone of inhibition at 1000 µg/mL: 28 mm
Candida tropicalis [10]; Candida tropicalis, SC8159, read-out: Zone diameter
  zone of inhibition at 1000 µg/mL: 29 mm
Cryptococcus neoformis; Cryptococcus, SC5817, read-out: Zone diameter
  zone of inhibition at 1000 µg/mL: 21 mm
Saccaromyces cerevisiae; Saccaromyces cerevisiae SGY 195, disc with 10 μl of 1 mg/ml
  zone of inhibition at 1000 µg/mL: 25 mm
Saccaromyces cerevisiae; [15]
  zone of inhibition at 1000 µg/mL: 30 mm
Candida quillermondi; Candida, SC2996, read-out: Zone diameter
  zone of inhibition at 1000 µg/mL: 29 mm
Candida quillermondi; [16]
  zone of inhibition at 1000 µg/mL: 30 mm
Candida krusei [11]
  zone of inhibition at 1000 µg/mL: 12 mm
Candida glabrata [12]
  zone of inhibition at 1000 µg/mL: 33 mm
[13]
  LD50: 385 mg/kg

## CCC/C=C/C=C/C=C(\C)[C@H]1OC[C@@H](C)[C@@H](OC)[C@@H]1OC(=O)CN (relative stereo) [Scopularin, (2α, 3β, 4α, 5α)-Tetrahydro-4-methoxy-5-methyl-2-(1-methyl-1,3,5-nonatrienyl)-2H-pyran-3-ol, aminoacetate ester]
[1]
  inhibition of cytochrome P450 enzymes, such as lanosterol demethylase: inhibit
Yeasts and fungi
  activity against a variety of yeasts and fungi: has activity
Candida albicans [8]; Candida albicans, SC4314, read-out: Zone diameter
  zone of inhibition at 1000 µg/mL: 37 mm
Candida parakrusei [9]; [14]
  zone of inhibition at 1000 µg/mL: 20 mm
Candida parakrusei [9]; SC2621, Candida parakrusei SC 2621, disc with 10 μl of 1 mg/ml, read-out: Zone diameter
  zone of inhibition at 1000 µg/mL: 31 mm
Candida tropicalis [10]; SC2963, Candida tropicalis SC 2963, disc with 10 μl of 1 mg/ml, read-out: Zone diameter
  zone of inhibition at 1000 µg/mL: 32 mm
Candida tropicalis [10]; SC8159, Candida tropicalis SC 8159, disc with 10 μl of 1 mg/ml, read-out: Zone diameter
  zone of inhibition at 1000 µg/mL: 30 mm
Cryptococcus neoformis; SC5817, Cryptococcus neoformis SC 5817, disc with 10 μl of 1 mg/ml, read-out: Zone diameter
  zone of inhibition at 1000 µg/mL: 25 mm
Saccaromyces cerevisiae; [15]
  zone of inhibition at 1000 µg/mL: 30 mm
Saccaromyces cerevisiae
  zone of inhibition at 1000 µg/mL: 23 mm
Candida quillermondi; [16]
  zone of inhibition at 1000 µg/mL: 31 mm
Candida quillermondi; SC2996, Candida quillermondi SC 2996, disc with 10 μl of 1 mg/ml, read-out: Zone diameter
  zone of inhibition at 1000 µg/mL: 32 mm
Candida krusei [11]
  zone of inhibition at 1000 µg/mL: 20 mm
Candida glabrata [12]
  zone of inhibition at 1000 µg/mL: 36 mm

— US5270334A, “4-methoxy-5-methyl-pyran-3-ol natural products and derivatives thereof” (E. R. Squibb & Sons, Inc., priority 1992, dated 1993)
